Values of other authors, collected in US20070003628A1, “Nanoparticulate clopidogrel formulations” (Elan Pharma International Limited, priority 2005, published 2007).
Structures can show the parent of a compound that is named as a salt. Where two headings read alike, the source gives them in different places.

Experiments:
[1] = not given; remark: listed apart in the source

| Structure (SMILES) | rate of a combined end point of cardiovascular death, MI, or stroke, and of cardiovascular death, MI, stroke, or refractory ischemia (patients with acute coronary syndrome) | rate of a combined end point of new ischemic stroke, new MI, and other vascular death (recent myocardial infarction, recent stroke or established arterial disease) | solubility in ethyl ether ([1]; ethyl ether) | solubility in methanol ([1]; methanol) | solubility in methylene chloride ([1]; methylene chloride) | solubility in water ([1]; pH 1.0) | solubility in water ([1]; water at neutral pH) | solubility in water ([1]; water, pH not stated) |
| --- | --- | --- | --- | --- | --- | --- | --- | --- |
| COC(=O)[C@H](c1ccccc1Cl)N1CCc2sccc2C1 [Clopidogrel bisulfate, methyl (+)-(S)-α-(2-chorophenyl)-6,7-dihydrothieno[3,2-c]pyridine-5(4H)-acetate sulfate (1:1)] | decrease the rate | reduce the rate | practically insoluble | dissolves freely | dissolves sparingly | freely soluble | practically insoluble | – |
| COC(=O)[C@H](c1ccccc1Cl)N1CCc2sccc2C1 [clopidogrel] | – | – | – | – | – | – | – | practically insoluble |
